Holding throughout (assay): SILAC pull-down with resin-bound 13, competition by compound 2
What all share (details): procyclic lysate; compound 2 10 μM vs DMSO; mean of three experiments

Test [1] deals with Cdc-2 related kinase 11 (CRK11). In kind it is binding, Trypanosoma brucei. As to the method: (§1) Chemical proteomic studies were carried out by immobilizing an analogue of compound 2 (probe 13; Figure 3A and Scheme 4) to magnetic beads via a polyethyleneglycol (PEG) linker. Appropriate attachment sites for the PEG linker were informed by the established structure–activity relationships within this series, and an advanced intermediate toward the final derivatized compound was screened against both bloodstream and procyclic forms of T. brucei to ensure that it retained potency. The analogue was immobilized by attachment to NHS-ester-activated paramagnetic beads. Activated beads were then incubated in SILAC (stable isotope labeling by amino acids in cell culture)-labeled T. brucei procyclic whole-cell lysates in the presence or absence of compound 2 (10 μM) with either “light-“ or “heavy”-labeled lysate. After combining the eluates from the beads and performing proteomic analyses, proteins that bound specifically to the diaminothiazole pharmacophore were distinguished from proteins that bound non-specifically to the beads by virtue of compound 2:DMSO tryptic peptide isotope ratios. As a result of these studies, four kinases and a cyclin were identified as specific binders of the compound 2-derivatized beads (Figure 3B and Table S11). It should be noted that of the four kinases identified, only CRK12 has been established as essential for survival of T. brucei.[14] […]
(§2) Trypanosoma brucei procyclic form parasites were grown in SDM-79 media (SILAC SDM-79, 2 g/L NaHCO3, 7.5 mg haemin, 1% glutamax and 15% dialysed FBS) with either light or heavy isotopes for 6-9 divisions (6 days) to a density of ~3 x 10^7 cells/ml. A total of 3 x10^8 cells were washed thrice with PBS. Buffer 1 (0.1 mM tosyl phenylalanyl chloromethyl ketone, 1 µg/ml leupeptin, 1 mM aprotinin, 1 mM phenylmethylsulfonyl fluoride, 1x Roche Complete protease inhibitors) was added to the parasite pellet, followed by Buffer 2 (100 mM Tris pH 7.5, 10% glycerol, 300 mM NaCl, 3 mM MgCl2, 1.6% IGEPAL® CA-630, 2 mM dithiothreitol) and incubated at 4 °C for 20 min. Lysates were centrifuged at 100,000 g at 4 °C for 1 h. Beads (blank and compound-bound) were washed twice with water and twice with lysis buffer (Buffer 1 and 2). Lysates were incubated with 2 mg blank beads for 30 min at 4 °C. Lysates were then incubated with either 10 µM DDD00770675 or 1% DMSO for 30 min at 4 °C. Finally, lysates were incubated with 2 mg of bound compound for 1 h at 4 °C. Beads were washed three times with wash buffer (0.5% IGEPAL® CA-630, 50 mM Tris pH 8.0, 5 mM EDTA, 1 mg/ml BSA) and twice with Tris-buffered saline. Samples were combined, run 1.5 cm into a Brs-TRIS 10% acrylamide gel and stained with Coomassie quick reagent for 1 h. Gel bands were subjected to in-gel reduction with 10 mM dithiothreitol, alkylation with 50 mM iodoacetamide and digestion with 12.5 μg/mL trypsin (Pierce) for >16h at 37°C. Recovered tryptic peptides were vacuum […]
(§3) 4.5 Peptide fractionation and LC-MS/MS analysis
(§4) Peptides were fractionated using High pH RP Chromatography. A C18 Column from Waters (XBridge peptide BEH, 130Å, 3.5 µm 2.1 x 150 mm, Waters, Ireland) with a guard column (XBridge, C18, 3.5 µm, 2.1 ×10 mm, Waters) were used on a Ultimate 3000 HPLC (Thermo-Scientific). Buffers A and B used for fractionation consist, respectively, of (A) 10mM ammonium formate in milliQ water pH 9.5 and (B) 10 mM ammonium formate, pH 9.5 in 90% acetonitrile. Fractions were collected using a WPS-3000FC auto-sampler (Thermo-Scientific) at 1 min intervals. Column and guard column were equilibrated with 2% Buffer B for twenty minutes at a constant flow rate of 0.2 mL/min. Peptides (190 µL) were injected onto the column, and the separation gradient was started 1 min after sample was loaded onto the column. Peptides were eluted from the column with a gradient of 2% Buffer B to 60% Buffer B in 53 min. The column was washed for 15 min in 100% Buffer B and equilibrated at […]
(§5) 2% Buffer B for 20 min. […]

Test [2] concerns Cdc2-related kinase 12 (CRK12). In kind it is binding, Trypanosoma brucei. As for the experimental part: as §1, §2, §3, §4, §5
In test [3] the test system is Cyclin 9 (CYC9). In kind it is binding, Trypanosoma brucei. As for the experimental part: as §1, §2, §3, §4, §5
Test [4] has as its system Inositol polyphosphate kinase-like protein (IPPK). The test is classed as binding, Trypanosoma brucei. As to the method: as §1, §2, §3, §4, §5
Test [5] concerns MAP kinase 4 (MAPK4). The test is classed as binding, Trypanosoma brucei. As for the experimental part: as §1, §2, §3, §4, §5
Test [6] has as its system MAP kinase 6 (MAPK6). In kind it is binding, Trypanosoma brucei. As for the experimental part: as §1, §2, §3, §4, §5
Test [7] relates to MAP kinase 9, putative (MAPK9). The test is classed as binding, Trypanosoma brucei. As to the method:
as §1, §2, §3, §4, §5

Test [8] has as its target T1, Phosphoglycerate kinase (PGK) (Trypanosoma brucei brucei, UniProt P07378).
T1 construct: endogenous in cells; host or cells: Trypanosoma brucei procyclic form, whole-cell lysate
The test is classed as binding. As for the experimental part:
as §1

T1 sequence (P07378 whole entry): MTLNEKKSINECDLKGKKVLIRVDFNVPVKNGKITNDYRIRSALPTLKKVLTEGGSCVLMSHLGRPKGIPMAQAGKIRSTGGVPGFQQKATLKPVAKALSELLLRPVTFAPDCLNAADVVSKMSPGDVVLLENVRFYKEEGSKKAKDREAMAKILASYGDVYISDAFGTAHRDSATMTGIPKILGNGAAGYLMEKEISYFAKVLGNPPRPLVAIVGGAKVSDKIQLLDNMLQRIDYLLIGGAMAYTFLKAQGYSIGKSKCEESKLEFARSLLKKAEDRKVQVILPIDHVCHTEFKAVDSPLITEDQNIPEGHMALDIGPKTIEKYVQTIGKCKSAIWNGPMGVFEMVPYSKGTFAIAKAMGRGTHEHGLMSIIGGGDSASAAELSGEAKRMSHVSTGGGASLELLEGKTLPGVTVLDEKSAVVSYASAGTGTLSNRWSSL

In the case of `CC(C)CS(=O)(=O)N[C@H]1CC[C@H](Nc2nc(N)c(C(=O)c3c(F)cc(CN(C)C)cc3F)s2)CC1` [Compound 2, N-(trans)-[4-[[4-Amino-5-[4-(dimethylaminomethyl)-2,6-difluoro-benzoyl]thiazol-2-yl]amino]cyclohexyl]-2-methyl-propane-1-sulfonamide], the “Log2 ratio DMSO/compound” value in test [1] came to 3.57; in test [2], 3.47; in test [3], 3.16; in test [4], 1.85; in test [5], 2.84; in test [6], 1.62. Besides, the “Log2 ratio DMSO/compound” value in test [7] came out at 4.15; in test [8], 1.92.

For the origin of these results see PMC9014415, “Repositioning of a Diaminothiazole Series Confirmed to Target the Cyclin-Dependent Kinase CRK12 for Use in the Treatment of African Animal Trypanosomiasis” (Journal of Medicinal Chemistry, 2022).
